Results as given in paper PMC12302426, “Dihydrokoumine, a dual-target analgesic with reduced side effects isolated from a traditional Chinese medicine” (Journal of Advanced Research, 2024).

What was measured:
C57BL/6 male mice = experiment: Hot-plate assay (acute pain); format: in vivo; settings: morphine 5 mg/kg i.p.
Procedure: The hot-plate test in mice was conducted following previously established method. Six-week-old C57BL/6 male mice were used in hot-plate assay (n = 6). Hot-plate response latency (55°C) after drug treatment was used to measure antinociceptive effect, where response was defined by the animal either by licking paws, flicking paws or jumping. Mice were exposed to the hot plate (Ugo Basile model 7280, Comerio, Italy) for a maximum of 20 s to avoid tissue damage. After three days’ baseline measure, mice were injected intraperitoneally (5 mL/kg) with the solvent mixture, morphine (5 mg/kg) or DK (20, 40 mg/kg) and latency was tested 0.5-, 1-, 2-, 3- and 4- hours post-administration. Evaluation of MOR agonistic and M3R antagonistic activity of DK, naloxone (2 mg/kg) and oxotremorine (0.4 mg/kg) were first injected intraperitoneally, immediately followed by the injection of morphine (5 mg/kg, evaluation of MOR) or DK (20 mg/kg).

M3R = biological target: T1, M3R (Homo sapiens, UniProt P20309); experiment: Radioligand binding assay, [3H] NMS; settings: [3H] NMS 0.2 nM
T1 construct: expressed in transfected cells; host or cells: HEK293 cell membranes
Procedure: Radioligand binding assays were conducted using MicroBeta2 (PerkinElmer, USA). Membrane protein preparations MOR and M3R were each prepared at a concentration of 2.5 µg/well. The radio ligands [^3H] DAMGO (specific for MOR) and [^3H]-NMS (specific for M3R) were prepared at concentrations of 0.5 nM and 0.2 nM, respectively. […] For each well, 1 µL of the serially diluted test compounds was transferred, followed by the addition of 100 µL of membrane stock solution and 100 µL of radioligand. The plates were sealed and shaken at 300 rpm at room temperature for one hour. Upon completion of the binding assay, the contents of each well were filtered through Unifilter-96 GF/C filter plates (PerkinElmer, USA). The filter plates were dried for one hour at 50°C and sealed. The trapped ^3H (tritium) on the filters was then quantified using the MicroBeta2. The percentage of inhibition or binding was subsequently calculated.

T1 sequence (P20309 whole entry): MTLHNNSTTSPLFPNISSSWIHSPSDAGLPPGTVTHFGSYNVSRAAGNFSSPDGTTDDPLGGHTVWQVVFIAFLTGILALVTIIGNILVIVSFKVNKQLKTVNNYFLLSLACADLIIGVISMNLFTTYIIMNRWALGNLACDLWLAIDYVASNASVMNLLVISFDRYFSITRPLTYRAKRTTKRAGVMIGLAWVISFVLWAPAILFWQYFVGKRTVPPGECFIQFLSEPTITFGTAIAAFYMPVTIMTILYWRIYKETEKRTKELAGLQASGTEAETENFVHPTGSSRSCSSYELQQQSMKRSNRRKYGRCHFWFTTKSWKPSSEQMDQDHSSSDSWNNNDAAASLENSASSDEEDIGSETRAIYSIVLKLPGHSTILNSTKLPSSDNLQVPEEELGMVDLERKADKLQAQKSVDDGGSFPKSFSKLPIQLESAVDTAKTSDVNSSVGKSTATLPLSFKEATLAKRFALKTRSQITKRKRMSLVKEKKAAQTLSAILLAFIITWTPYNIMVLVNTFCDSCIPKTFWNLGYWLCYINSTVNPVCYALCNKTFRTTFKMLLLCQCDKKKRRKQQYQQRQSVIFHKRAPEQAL

Structure (SMILES): CN1CC[C@]23c4c5ccc(O)c4O[C@H]2[C@@H](O)C=C[C@H]3[C@H]1C5 [morphine, reference compound]
- time course of antinociception (C57BL/6 male mice): largely reduced after one hour and even disappeared at 3 h

Structure (SMILES): CN1[C@@H]2C[C@@H](OC(=O)[C@H](CO)c3ccccc3)C[C@H]1[C@@H]1O[C@@H]12 [scopolamine, reference compound]
- efficacy (maximal inhibition of radioligand binding) (M3R): 100%
